The record followed here is patent US20090221653A1, “7-(2-amino-1-hydroxy-ethyl)-4-hydroxybenzothiazol-2(3H)-one-derivatives as beta2 adrenoreceptor agonists” (AstraZeneca AB, priority 2005, published 2009).

Where a name gives a salt, the structure may show the parent alone.

Test [1] concerns the target T1, β2 receptor (Homo sapiens, UniProt P07550).
T1 construct: endogenous in cells; host or cells: H292 cells
The test is described as follows: Adrenergic β2 mediated cAMP production in H292 cells (AlphaScreen cAMP detection). It counts as cell-based. The note with it: for EC50: cAMP, test compounds incubated 10 minutes, 300 μM rolipram; for Intrinsic Activity: fraction relative to the maximum activity determined for formoterol, 10 minutes incubation. As to the method: H292 cells were grown in RPMI (Roswell Park Memorial Institute) medium containing, 10% (v/v) FBS (foetal bovine serum) and 2 mM L-glutamine. Cells were grown in 225 cm2 flasks containing 25 mL media in a humidified incubator at 37° C., 5% CO2. Cells were harvested from the flask and passaged at a 1 in 10 dilution once per week.
The media from flasks containing H292 cells was removed, rinsed with 10 mL PBS (phosphate buffered saline) and replaced with 10 mL Accutase™ cell detachment solution. Flasks were incubated for 15 minutes in a humidified incubator at 37° C., 5% CO2. The cell suspension was counted and the cells re-suspended in RPMI media (containing 10% (v/v) FBS and 2 mM L-glutamine) at 0.05×10^6 cells per mL. 5000 cells in 100 μL were added to each well of a tissue-culture-treated 96-well plate and the cells incubated overnight in a humidified incubator at 37° C., 5% CO2. The culture media was removed, washed twice with 100 μL assay buffer and replaced with 50 μL assay buffer. Cells were rested at room temperature for 20 minutes after which time 25 μL of rolipram (1.2 mM made up in assay buffer containing 2.4% (v/v) dimethylsulphoxide) was added. Cells were incubated with rolipram for 10 minutes after which time test compounds (made up as ×4 concentrated stocks in assay buffer containing 4% (v/v) dimethylsulphoxide) were added and the cells were incubated for 10 minutes at room temperature. Final rolipram concentration in the assay was 300 μM and final vehicle concentration was 1.6% (v/v) dimethylsulphoxide. The reaction was stopped by removing supernatants, washing once with 100 μL assay buffer and replacing with 50 μL lysis buffer. The cell monolayer was frozen at −80° C. for 30 minutes (or overnight).
The concentration of cAMP (cyclic adenosine monophosphate) in the cell lysate was determined using the AlphaScreen™ methodology. The frozen cell plate was thawed for 20 minutes on a plate shaker then 10 μL of the cell lysate was transferred to a 96-well white plate. 40 μL of mixed AlphaScreen™ detection beads (containing equal volumes of donor beads (pre-incubated with biotinylated cAMP in the dark for 30 minutes) and acceptor beads), was added to each well and the plate incubated at room temperature for 10 hours in the dark. The AlphaScreen™ signal was measured using an EnVision spectrophotometer (Perkin-Elmer Inc.) with the recommended manufacturer's settings. cAMP concentrations were determined by reference to a calibration curve determined in the same experiment using standard cAMP concentrations (made up in lysis buffer in a 96-well tissue-culture-treated plate and frozen/thawed alongside the test samples) and detected using the same protocol. Concentration response curves for agonists were constructed to determine both the pEC50 and Intrinsic Activity.
For orientation: Changes in cAMP serve as a functional read-out for many G protein-coupled receptors.

For test [2], the target named is T2, recombinant human Dopamine Subtype D2s receptors (Homo sapiens, UniProt P14416).
T2 construct: purchased Perkin Elmer
The test is described as follows: Dopamine D2 selectivity assay, inhibition of [3H]-spiperone binding. The note with it: membranes, [3H]-spiperone 0.16 nM; read-out: D2 bind pIC50 (converted).

T1 sequence (P07550 whole entry): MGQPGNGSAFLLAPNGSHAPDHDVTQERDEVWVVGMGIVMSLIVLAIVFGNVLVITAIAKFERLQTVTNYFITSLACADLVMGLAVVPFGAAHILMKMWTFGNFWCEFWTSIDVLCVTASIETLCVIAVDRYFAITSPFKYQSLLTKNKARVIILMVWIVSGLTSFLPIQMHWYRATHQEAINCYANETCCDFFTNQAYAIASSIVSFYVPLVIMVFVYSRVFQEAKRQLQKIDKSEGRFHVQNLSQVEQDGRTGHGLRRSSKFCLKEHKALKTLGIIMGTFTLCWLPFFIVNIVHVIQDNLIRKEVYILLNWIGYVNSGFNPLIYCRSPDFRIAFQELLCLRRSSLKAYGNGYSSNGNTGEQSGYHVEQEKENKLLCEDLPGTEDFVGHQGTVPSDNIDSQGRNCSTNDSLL
T2 sequence (P14416 1-414 isoform P14416-2): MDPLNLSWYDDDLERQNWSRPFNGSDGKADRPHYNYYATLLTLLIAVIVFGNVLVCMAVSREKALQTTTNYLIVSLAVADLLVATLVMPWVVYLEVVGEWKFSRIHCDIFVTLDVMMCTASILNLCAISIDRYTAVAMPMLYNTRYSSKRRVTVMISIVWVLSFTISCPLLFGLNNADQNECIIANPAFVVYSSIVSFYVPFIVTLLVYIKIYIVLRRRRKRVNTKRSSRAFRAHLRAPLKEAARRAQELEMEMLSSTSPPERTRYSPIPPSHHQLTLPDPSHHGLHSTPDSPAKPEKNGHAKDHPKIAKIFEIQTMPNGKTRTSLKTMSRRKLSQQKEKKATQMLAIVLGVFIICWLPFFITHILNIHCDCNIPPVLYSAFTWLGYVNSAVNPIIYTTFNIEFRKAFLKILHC

As for `O=c1[nH]c2c(O)ccc([C@@H](O)CNCCCS(=O)(=O)CCOCCc3cccc4ccccc34)c2s1` [Example 2, 4-Hydroxy-7-((1R)-1-hydroxy-2-{[3-({2-[2-(1-naphthyl)ethoxy]ethyl}sulfonyl)propyl]-amino}ethyl)-1,3-benzothiazol-2(3H)-one trifluoroacetate], in test [1], the half-maximal effective concentration (EC50) was 0.158 nM and the “Intrinsic Activity” value stood at 1.0.

Regarding `Cl.O=c1[nH]c2c(O)ccc([C@@H](O)CNCCSCCOCCc3cccc4ccccc34)c2s1` [Example 4, 4-Hydroxy-7-((1R)-1-hydroxy-2-{[2-({2-[2-(1-naphthyl)ethoxy]ethyl}thio)ethyl]-amino}ethyl)-1,3-benzothiazol-2(3H)-one hydrochloride], in test [1], the response was half-maximal at 0.1 nM (EC50) and the “Intrinsic Activity” value was 0.9. In addition, the IC50 in test [2] is 794 nM.

A word on the EC50: it is the midpoint of the concentration-response curve.
